# Experimental data published in patent US20240197596A1, “COMPOUNDS USEFUL AS HAIR DYES” (National University of Singapore, priority 2021, published 2024).
# Several values for one entry are separate records, joined by “and”; a condition that tells them apart may be missing. Identical values can stand only once. Entries after “also recorded” stand apart in the source; their conditions may differ.
# What was measured:
# [1] = tested on: IL-1α; assay: IL-1α release assay (ELISA) in THP-1 cells; format: cell-based, human; details: CV75 dose, 24 h
# Method: (§1) CV75 values (concentration showing 75% of THP-1 cell survival) were determined as per the procedure described above in section A of this method. The IL-8 and IL-1α release assay was performed as described in Toxicol In Vitro. 2003, 17(3), 311-321. A Chemokine immunosorbent assay Bio-legend ELISA Max kit was used to quantify the levels of available IL-8 and IL-1α protein. The supernatant media of untreated THP-1 cells was treated with standards, test samples N1-N13 and DMSO in 96 well plate and then was recovered after 24 h of culture. IL-8 and IL-1α was measured by ELISA in 96-well microtiter plates according to the manufacturer protocol (Biolegend, ELISA MAX™, Singapore).
# [2] = Skin permeation study, Franz diffusion cell; format: in vitro ADME, porcine; details: for Cumulative amount at 8th hour: 1% w/v in deionized water; for Cumulative amount at 8th hour / Cumulative amount comparison of PPD vs derivatives (times less than PPD) / Permeated through skin into receptor / Recovered in donor compartment / Recovered in skin / Recovered in skin outside diffusion area / Recovered in skin swabs / Recovered on parafilm and in washes: 8 h; for Permeated through skin into receptor / Recovered in donor compartment / Recovered in skin / Recovered in skin outside diffusion area / Recovered in skin swabs / Recovered on parafilm and in washes: mass balance; for recovery at 8 h, 1 % w/v: pig, end of 8 h, read-out: Total recovery (mean percentage parent compound recovery)
# Method: In each Franz cell, a piece of pig ear skin prepared to a thickness of […] was clamped securely. 5 mL of PBS solution was added to the receiver compartment which was purged of air bubbles to ensure maximal contact of the skin piece with the solution. Donor solution was prepared by dissolving N1-N13 in deionized water at 1% w/v, and 900 μL was added to the donor compartment. The study was conducted for 8 h, and aliquots of 200 μL were removed from the receiver solution and topped up with fresh PBS at each timepoint of 15-minutes intervals for the first hour and every hour after that.
# For mass balance, at the end of 8 h, skin pieces and swabs of the top and bottom surface of the skin were collected and stored in ACN for N1-N13 extraction. Donor solution and receiver solution were also collected.
# The aliquot samples collected were subjected to 2-step extraction using 750 μL of dichloromethane (DCM). […] The solvent was dried using the TurboVap, and then reconstituted with 198 μL of 0.1% formic acid in 50% methanol in water and spiked with 2 μL of ANP (internal standard). The processed aliquot samples and mass balance samples were then sent for analysis using LC-MS/MS. The compounds' steady state fluxes and permeability coefficients were then calculated by fitting the solution to Fick's […] of diffusion at the steady state (linear part) of each experimental cumulative amount curve.
# [3] = tested on: IL-8; assay: IL-8 release assay (ELISA) in THP-1 cells; format: cell-based, human; details: CV75 dose, 24 h
# Method: as §1
# [4] = tested on: cysteine heptapeptide (Ac-RFAACAA-COOH) and lysine heptapeptide (Ac-RFAAKAA-COOH); assay: Direct Peptide Reactivity Assay (DPRA); format: biochemical; details: from mean peptide depletion
# Method: The assay was conducted on N1-N13 in triplicates with the respective solvent used to prepare compound stock solutions as control. A stock concentration of 20 mM was prepared instead of the recommended 100 mM by OECD due to scarcity of compounds. The various constituents of the incubation mixture were freshly prepared to prevent stability issues that could cause variations in results. An incubation mixture with the recommended peptide to test compound ratios of 1:10 for cysteine heptapeptide and 1:50 for lysine heptapeptide (OECD. Test No. 442C: In Chemico Skin Sensitisation 2020) was prepared then incubated at 25° C. for 24 h in a shaking incubator (Toxicol Sci. 2012; 129(2):421-31).
# At 24 h, the incubation mixture was quenched with 75 μL of 95% ACN/H2O containing 200 μM Leucine Enkephalin (Internal Standard). For cysteine DPRA, 100 μL of quenched mixture was spiked into 90 μL of 2% ACN/H2O and 10 μL of freshly prepared 0.016 mM 1,4-Dithiothreitol (DTT) solution. DTT maintains the integrity of thiol groups by preventing the dimerization of thiol groups and degradation of di-adducts to mono-adducts. This second mixture was then incubated at 40° C. for 30 min in a shaking incubator. For lysine DPRA, 10 μL of quenched mixture was spiked into 190 μL of 2% ACN/H2O. All 200 μL of mixtures were transferred into a 96-well plate and sent for analysis with Liquid Chromatography-Tandem Mass Spectrometry (LC-MS/MS).
# [5] = Hair nuance test; design: key to L* / a* / b*: CIELAB L*, a*, b* coordinates; key to ΔE (total colour difference to natural hair): ΔE = √((L*−L0)²+(a*−a0)²+(b*−b0)²) vs untreated hair; details: for eventual colour of bleached hair, Type A: Type A (Non-oxidative) formulation; for eventual colour of bleached hair, Type B: Type B (Oxidative, H2O2) formulation; for eventual colour of bleached hair, Type C: Type C (Oxidative with coupler resorcinol) formulation
# Method: 35 g of bleaching powder was mixed with 50 mL of developer then applied onto undyed black hair (wrapped in aluminium foil to enhance the bleaching process) and left on for 45 min. The hair was then rinsed with deionized water and shampoo and left to dry. This process was repeated twice.
# Hair dye formulations were prepared from N1-N13 according to methods reported (New Journal of Chemistry. 2019; 43(41):16188-99), and with the compositions stated in Table 11 Bleached hair samples were immersed into the respective formulations for 20 min, then air dried for 20 min. Then they were shampooed twice and treated with conditioner for 5 min.
# SkinColorCatch (Delfin Technologies Ltd, Kuopio, Finland) was used to measure CIELAB tristimulus L*, a* and b* values of the dyed hair samples and baseline L0, a0, b0 values from untreated hair. The difference in colour tone (ΔH) and the total colour difference (ΔE) were then derived from the values obtained with the equations below:
# ΔH=√{square root over ((a*−a0)^2+(b*−b0)^2)}
# ΔE=√{square root over ((L*−L0)^2+(a*−a0)^2+(b*−b0)^2)}
# [6] = Type C (Oxidative with coupler resorcinol)
Structure (SMILES),Cumulative amount at 8th hour [2],Permeated through skin into receptor [2],Recovered in donor compartment [2],Recovered in skin [2],Recovered in skin outside diffusion area [2],Recovered in skin swabs [2],Recovered on parafilm and in washes [2],"recovery at 8 h, 1 % w/v [2] [%]",L* ([5]; Type A (Non-oxidative)),a* ([5]; Type A (Non-oxidative)),b* ([5]; Type A (Non-oxidative)),ΔE (total colour difference to natural hair) ([5]; Type A (Non-oxidative)),ΔH (difference in colour tone) ([5]; Type A (Non-oxidative)),L* ([5]; Type B (Oxidative)),a* ([5]; Type B (Oxidative)),b* ([5]; Type B (Oxidative)),ΔE (total colour difference to natural hair) ([5]; Type B (Oxidative)),ΔH (difference in colour tone) ([5]; Type B (Oxidative)),"eventual colour of bleached hair, Type B [5]","L* [5, 6]",further results
"COCCOc1cc(N)ccc1N [Compound N7, 2-(2-methoxyethoxy)benzene-1,4-diamine]",0.0080 μg/cm^2 and 0.008 μg/cm^2,<0.001 % of applied compound dose,97.5 % of applied compound dose,0.03 % of applied compound dose,0.007 % of applied compound dose,0.09 % of applied compound dose,0.001 % of applied compound dose,97 ± 1.49,22,2.7,4.7,13.8,4.6,19,4.7,3,11.2,5.1,Walnut brown,12.3,"release of IL-1α [1]: slight elevation; also recorded: marginal release; Cumulative amount comparison of PPD vs derivatives (times less than PPD) [2]: 675.0; release of IL-8 [3]: slight elevation; also recorded: marginal release; sensitizing potential (DPRA) [4]: moderate sensitization; eventual colour of bleached hair, Type A [5]: dark brown colour shade; also recorded: Dark hazelnut; a* [5, 6]: −0.7; b* [5, 6]: −4; ΔE (total colour difference to natural hair) [5, 6]: 6.0; ΔH (difference in colour tone) [5, 6]: 5.0; eventual colour of bleached hair, Type C [5]: vibrant blue colours; also recorded: Navy blue"
"CCC(=O)COc1cc(N)ccc1N [Compound N11, 1-(2,5-diaminophenoxy)butan-2-one]",0.00794 μg/cm^2,<0.001 % of applied compound dose,93.7 % of applied compound dose,0.06 % of applied compound dose,0.002 % of applied compound dose,0.025 % of applied compound dose,0.005 % of applied compound dose,93.8 ± 1.3,36,5,8,28.33,5.32,9,0,−1,2,1.41,black colour,32,"Cumulative amount comparison of PPD vs derivatives (times less than PPD) [2]: 680; sensitizing potential (DPRA) [4]: moderate sensitizers; eventual colour of bleached hair, Type A [5]: Greyish brown; a* [5, 6]: 18; b* [5, 6]: 25; ΔE (total colour difference to natural hair) [5, 6]: 37.8; ΔH (difference in colour tone) [5, 6]: 6.14; eventual colour of bleached hair, Type C [5]: Pale Brown"
"C=C(C)Oc1cc(N)ccc1N [Compound N12, 2-(prop-1-en-2-yloxy)benzene-1,4-diamine]",0.0145 μg/cm^2 and 0.0144 μg/cm^2,<0.001 % of applied compound dose,96.0 % of applied compound dose,0.02 % of applied compound dose,0.0045 % of applied compound dose,0.05 % of applied compound dose,0.007 % of applied compound dose,96.1 ± 1,17,9,4,12.4,3.52,28,18,12,28.39,5.32,brown colour,11,"release of IL-1α [1]: slight elevation; also recorded: marginal release; release of IL-8 [3]: slight elevation; also recorded: marginal release; a* [5, 6]: 0; b* [5, 6]: −3; ΔE (total colour difference to natural hair) [5, 6]: 4.47; ΔH (difference in colour tone) [5, 6]: 2.11; eventual colour of bleached hair, Type C [5]: distinct purple colour"
